17 molecules from patent US11826351B2, “Compounds useful as kinase inhibitors” (Loxo Oncology, Inc., priority 2015, dated 2023) can be followed below.

Where only a bound is given, the exact number is not on record here.

Assay [1] concerns the target T1, Recombinant BTK^WT kinase (Homo sapiens, UniProt Q06187).
T1 construct: purchased Invitrogen
Description: BTK WT binding affinity (LanthaScreen TR-FRET). Conditions: Kinase Tracer 236, 5 h incubation. A digest of the protocol:
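Tracer-displacement TR-FRET: 2.5 nM recombinant BTK^WT, 2 nM Eu anti-His antibody and 15 nM Kinase Tracer 236 incubated with varying inhibitor concentrations for 5 h in Kinase Buffer A. Signal read at 340 nm excitation, 615/665 nm emission; IC50 from variable-slope log[inhibitor]–response fit.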

Assay [2] concerns the target T2, Recombinant BTK^C481S kinase (Homo sapiens, UniProt Q06187, C481S).
T2 construct: purchased SignalChem
Description: BTK C481S binding affinity (LanthaScreen TR-FRET). Conditions: Kinase Tracer 236, 5 h incubation. A digest of the protocol:
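BTK C481S tracer-displacement TR-FRET: 5 nM His-tagged kinase, 2 nM Eu anti-His antibody and 30 nM Kinase Tracer 236 incubated with titrated inhibitor for 5 h in Kinase Buffer A. Read at 340 nm excitation, 615/665 nm emission; IC50 from variable-slope log[inhibitor]–response fit.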

In another assay the target is T3, Recombinant EGFR (Homo sapiens, UniProt P00533).
T3 construct: purchased Invitrogen
The assay can be described thus: EGFR binding affinity (LanthaScreen TR-FRET). The settings on record: Kinase Tracer 199, 5 h incubation. A digest of the protocol:
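TR-FRET binding (LanthaScreen) with recombinant EGFR; signal measured across a compound concentration range. IC50 obtained by fitting RFU against log[inhibitor] to a variable-slope model.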

In assay [3] the test system is OCI-Ly10 human DLBCL cells. Description: OCI-Ly10 anti-proliferative activity (Resazurin). Format: cell-based. The settings on record: Homo sapiens, OCI-Ly10, 72 h, OCI-Ly10 cells, 72 h compound treatment, Resazurin; read-out: Proliferation Assay OCI-Ly10-20% FBS. An outline of the steps: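 OCI-Ly10 human DLBCL cells, whose growth depends on NFκB signalling, were seeded at 7.5×10^3 cells per well in 96-well plates with a range of compound concentrations and kept at 37° C for 72 h. Resazurin was then added, and after 5 h fluorescence was read at 590 nm.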

T2 sequence (Q06187 whole entry C481S): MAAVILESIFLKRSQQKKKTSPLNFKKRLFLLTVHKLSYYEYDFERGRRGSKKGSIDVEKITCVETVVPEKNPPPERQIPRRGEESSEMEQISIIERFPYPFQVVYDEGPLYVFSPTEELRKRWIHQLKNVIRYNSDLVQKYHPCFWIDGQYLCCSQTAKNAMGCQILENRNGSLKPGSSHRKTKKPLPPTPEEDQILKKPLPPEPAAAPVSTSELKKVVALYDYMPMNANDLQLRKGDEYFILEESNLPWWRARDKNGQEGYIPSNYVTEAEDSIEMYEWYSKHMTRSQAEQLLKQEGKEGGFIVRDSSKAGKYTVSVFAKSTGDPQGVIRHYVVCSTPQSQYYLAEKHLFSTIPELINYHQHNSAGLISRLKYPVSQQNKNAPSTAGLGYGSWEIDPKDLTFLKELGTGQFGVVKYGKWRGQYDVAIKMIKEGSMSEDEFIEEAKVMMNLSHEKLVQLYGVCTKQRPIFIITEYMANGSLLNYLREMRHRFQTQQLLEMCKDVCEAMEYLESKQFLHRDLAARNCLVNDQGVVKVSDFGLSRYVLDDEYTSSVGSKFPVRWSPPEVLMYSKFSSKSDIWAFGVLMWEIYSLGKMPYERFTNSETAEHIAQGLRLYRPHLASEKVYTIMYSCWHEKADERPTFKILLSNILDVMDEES
T1 sequence (Q06187 whole entry): as the sequence (Q06187 whole entry C481S) above, with S481C counted along it
T3 sequence (P00533 25-1210): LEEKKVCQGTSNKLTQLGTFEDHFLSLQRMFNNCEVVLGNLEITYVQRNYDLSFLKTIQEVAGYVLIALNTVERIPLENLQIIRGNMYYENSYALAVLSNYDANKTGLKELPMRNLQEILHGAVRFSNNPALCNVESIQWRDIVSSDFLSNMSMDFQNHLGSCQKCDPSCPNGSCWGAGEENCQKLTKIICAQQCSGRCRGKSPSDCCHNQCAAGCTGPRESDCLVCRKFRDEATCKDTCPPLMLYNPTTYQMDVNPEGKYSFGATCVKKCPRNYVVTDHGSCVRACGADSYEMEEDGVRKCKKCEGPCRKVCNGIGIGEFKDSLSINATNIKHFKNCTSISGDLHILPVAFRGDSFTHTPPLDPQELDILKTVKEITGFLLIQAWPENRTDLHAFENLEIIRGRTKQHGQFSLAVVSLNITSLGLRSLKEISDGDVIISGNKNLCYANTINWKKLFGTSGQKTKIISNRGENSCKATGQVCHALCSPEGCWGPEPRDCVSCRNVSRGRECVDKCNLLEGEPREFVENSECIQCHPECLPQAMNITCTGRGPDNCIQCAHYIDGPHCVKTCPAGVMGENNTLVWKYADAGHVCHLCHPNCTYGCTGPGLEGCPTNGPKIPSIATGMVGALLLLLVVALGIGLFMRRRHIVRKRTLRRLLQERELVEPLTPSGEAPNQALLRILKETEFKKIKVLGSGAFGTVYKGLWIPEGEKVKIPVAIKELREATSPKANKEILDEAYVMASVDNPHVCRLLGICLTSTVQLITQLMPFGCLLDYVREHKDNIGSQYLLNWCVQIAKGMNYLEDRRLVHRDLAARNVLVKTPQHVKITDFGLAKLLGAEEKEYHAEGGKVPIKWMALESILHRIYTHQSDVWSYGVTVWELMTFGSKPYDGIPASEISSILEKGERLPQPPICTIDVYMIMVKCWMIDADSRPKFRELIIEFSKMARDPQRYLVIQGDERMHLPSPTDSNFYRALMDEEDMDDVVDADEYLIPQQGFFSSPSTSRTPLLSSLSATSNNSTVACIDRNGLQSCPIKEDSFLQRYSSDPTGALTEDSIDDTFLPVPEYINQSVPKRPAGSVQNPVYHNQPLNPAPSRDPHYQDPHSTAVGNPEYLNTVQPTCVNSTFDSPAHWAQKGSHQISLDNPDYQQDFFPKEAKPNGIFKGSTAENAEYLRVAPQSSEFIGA

Regarding `COc1ccccc1C(=O)NCc1ccc(-c2nn(C3CCCC3)c(Cl)c2C(N)=O)cc1` [Example 78, 5-chloro-1-cyclopentyl-3-[4-[[(2-methoxybenzoyl)amino]methyl]phenyl]pyrazole-4-carboxamide], the IC50 in assay [1] was 10 to 100 nM; in assay [2] it was 10 to 100 nM; on Recombinant EGFR, greater than 10000 nM; in assay [3] it was 1000 to 10000 nM.

`COc1ccc(F)cc1C(=O)NCc1ccc(-c2nn(C3CCOCC3)c(N)c2C(N)=O)c(F)c1F` [Example 142, 5-amino-3-[2,3-difluoro-4-[[(5-fluoro-2-methoxy-benzoyl)amino]methyl]phenyl]-1-tetrahydropyran-4-yl-pyrazole-4-carboxamide]: the IC50 was less than 10 nM in assay [1], less than 10 nM in assay [2], 1000 to 10000 nM at Recombinant EGFR and 100 to 1000 nM in assay [3].

Regarding `COc1ccccc1C(=O)NCc1ccc(-c2nn(C3Cc4ccccc4C3)c(N)c2C(N)=O)cc1` [Example 52, 5-amino-1-indan-2-yl-3-[4-[[(2-methoxybenzoyl)amino]methyl]phenyl]pyrazole-4-carboxamide], the IC50 in assay [1] is less than 10 nM; in assay [2], less than 10 nM; at Recombinant EGFR, 100 to 1000 nM; in assay [3], 10 to 100 nM.

On to `COc1ccccc1C(=O)NCc1ccc(-c2nn(C3CCC3)c(N)c2C(N)=O)cc1` [Example 35, 5-Amino-1-cyclobutyl-3-[4-[[(2-methoxybenzoyl)amino]methyl]phenyl]pyrazole-4-carboxamide], for which the IC50 in assay [1] was less than 10 nM; in assay [2] it was less than 10 nM; on Recombinant EGFR it was 1000 to 10000 nM; in assay [3], 10 to 100 nM.

Take `COc1ccccc1C(=O)NCc1ccc(-c2nn(C3CCOCC3)c(N)c2C(N)=O)cc1F` [Example 116, 5-amino-3-[3-fluoro-4-[[(2-methoxybenzoyl)amino]methyl]phenyl]-1-tetrahydropyran-4-yl-pyrazole-4-carboxamide]: the IC50 was 10 to 100 nM in assay [1], less than 10 nM in assay [2], 1000 to 10000 nM at Recombinant EGFR and 100 to 1000 nM in assay [3].

For the molecule `COc1ccccc1C(=O)NCc1cc(F)c(-c2nn(C3CCCOC3)c(N)c2C(N)=O)cc1F` (centres unmarked) [Example 151, 5-amino-3-[2,5-difluoro-4-[[(2-methoxybenzoyl)amino]methyl]phenyl]-1-tetrahydropyran-3-yl-pyrazole-4-carboxamide], the IC50 in assay [1] was less than 10 nM; in assay [2] it was less than 10 nM; at Recombinant EGFR, 1000 to 10000 nM; in assay [3], 100 to 1000 nM.

As to `COc1ccccc1C(=O)NCc1ccc(-c2nn(-c3cccnc3)c(N)c2C(N)=O)cc1` [Example 51, 5-amino-3-[4-[[(2-methoxybenzoyl)amino]methyl]phenyl]-1-(3-pyridyl)pyrazole-4-carboxamide], the IC50 in assay [1] is less than 10 nM; in assay [2], less than 10 nM; at Recombinant EGFR, 100 to 1000 nM; in assay [3], 10 to 100 nM.

`COc1ccccc1C(=O)NCc1ccc(-c2nn([C@H]3CC[C@H](O)C3)c(N)c2C(N)=O)cc1` (relative stereo) [Example 46, 5-Amino-1-[(1S*,3S*)-3-hydroxycyclopentyl]-3-[4-[[(2-methoxybenzoyl)amino]methyl]phenyl]pyrazole-4-carboxamide]: the IC50 is less than 10 nM in assay [1], less than 10 nM in assay [2], 100 to 1000 nM on Recombinant EGFR and 10 to 100 nM in assay [3].

Consider `COc1ccccc1C(=O)NCc1ccc(-c2nn(C3CCCOC3)c(N)c2C(N)=O)c(F)c1F` (centres unmarked) [Example 157, 5-amino-3-[2,3-difluoro-4-[[(2-methoxybenzoyl)amino]methyl]phenyl]-1-tetrahydropyran-3-yl-pyrazole-4-carboxamide], for which the IC50 is less than 10 nM in assay [1], less than 10 nM in assay [2], greater than 10000 nM at Recombinant EGFR and 10 to 100 nM in assay [3].

Turning to `COc1ccccc1C(=O)NCc1ccc(-c2nn(C3CC(C)OC(C)C3)c(N)c2C(N)=O)cc1` (centres unmarked) [Example 104, 5-amino-1-(2,6-dimethyltetrahydropyran-4-yl)-3-[4-[[(2-methoxybenzoyl)amino]methyl]phenyl]pyrazole-4-carboxamide], the IC50 is 10 to 100 nM in assay [1], less than 10 nM in assay [2], 1000 to 10000 nM on Recombinant EGFR and 100 to 1000 nM in assay [3].

Consider `COc1ccccc1C(=O)NCc1ccc(-c2nn(C3CCCC(C(=O)N(C)C)C3)c(N)c2C(N)=O)cc1` (single isomer, unassigned) [Example 70, 5-amino-1-[3-(dimethylcarbamoyl)cyclohexyl]-3-[4-[[(2-methoxybenzoyl)amino]methyl]phenyl]pyrazole-4-carboxamide], for which the IC50 in assay [1] was less than 10 nM; in assay [2], less than 10 nM; at Recombinant EGFR it was 100 to 1000 nM; in assay [3], 10 to 100 nM.

Turning to `COc1ccccc1C(=O)NCc1ccc(-c2nn(C3CCOCC3)c(N)c2C(N)=O)cc1` [Example 64, 5-amino-3-[4-[[(2-methoxybenzoyl)amino]methyl]phenyl]-1-tetrahydropyran-4-yl-pyrazole-4-carboxamide], the IC50 in assay [1] was less than 10 nM; in assay [2], less than 10 nM; on Recombinant EGFR, 100 to 1000 nM; in assay [3], 10 to 100 nM.

Consider `CNc1c(C(N)=O)c(-c2ccc(CNC(=O)c3ccccc3OC)cc2)nn1C1CCOC1` (centres unmarked) [Example 97, 3-[4-[[(2-methoxybenzoyl)amino]methyl]phenyl]-5-(methylamino)-1-tetrahydrofuran-3-yl-pyrazole-4-carboxamide], for which the IC50 in assay [1] was 10 to 100 nM; in assay [2], less than 10 nM; on Recombinant EGFR, 1000 to 10000 nM; in assay [3], 1000 to 10000 nM.

Regarding `COc1ccc(F)cc1C(=O)NCc1ccc(-c2nn(C3CCCC3)c(N)c2C(N)=O)cc1` [Example 88, 5-amino-1-cyclopentyl-3-[4-[[(5-fluoro-2-methoxy-benzoyl)amino]methyl]phenyl]pyrazole-4-carboxamide], the IC50 is less than 10 nM in assay [1], less than 10 nM in assay [2], 100 to 1000 nM at Recombinant EGFR and less than 10 nM in assay [3].

Regarding `COc1ccccc1C(=O)NCc1cc(F)c(-c2nn(C3CCCC3)c(N)c2C(N)=O)c(F)c1` [Example 140, 5-amino-1-cyclopentyl-3-[2,6-difluoro-4-[[(2-methoxybenzoyl)amino]methyl]phenyl]pyrazole-4-carboxamide], the IC50 is less than 10 nM in assay [1], less than 10 nM in assay [2], greater than 10000 nM at Recombinant EGFR and 100 to 1000 nM in assay [3].

As to `COc1ccccc1C(=O)NCc1ccc(-c2nn(-c3ccccc3F)c(N)c2C(N)=O)cc1` [Example 39, 5-amino-1-(2-fluorophenyl)-3-[4-[[(2-methoxybenzoyl)amino]methyl]phenyl]pyrazole-4-carboxamide], the IC50 in assay [1] was less than 10 nM; in assay [2] it was less than 10 nM; on Recombinant EGFR it was 100 to 1000 nM; in assay [3], 10 to 100 nM.

Take `COc1ccccc1C(=O)NCc1ccc(-c2nn(-c3ccc(C(F)(F)F)cn3)c(N)c2C(N)=O)cc1` [Example 6, 5-Amino-3-[4-[[(2-methoxybenzoyl)amino]methyl]phenyl]-1-[5-(trifluoromethyl)-2-pyridyl]pyrazole-4-carboxamide]: the IC50 in assay [1] was 10 to 100 nM; in assay [2] it was less than 10 nM; on Recombinant EGFR it was greater than 10000 nM; in assay [3], 100 to 1000 nM.
